Read-outs that look alike come from different tables or passages of the source. Marks after values point to notes of the source that are not given here. Starred links: 1 amine or outer side, 2 acyl side, 3 side chain; linkers in the order of their positions; H or OH if unused. Non-standard residues stand in square brackets, D forms with d. Residues, ends and D or L forms follow the SMILES beside them. Groups on a side chain read outwards from the residue. *: point of attachment. C20 diacid = O=C(O)CCCCCCCCCCCCCCCCCCC(=O)*; γGlu = O=C(O)[C@H](CCC(=O)[*:2])N[*:1]; NMeI = CC[C@H](C)[C@H](NC)C(=O)O; Nle = CCCC[C@H](N)C(=O)O; AEEA = NCCOCCOCC(=O)O; Aib = CC(C)(N)C(=O)O
Experiments:
hCRHR2 = target: T1, hCRHR2 (Homo sapiens, UniProt Q13324); experiment: HTRF cAMP assay, determination of hCRHR2 potency (peptide libraries 5 conc., purified peptides 11 conc.); type: cell-based
T1 sequence (Q13324 1-411): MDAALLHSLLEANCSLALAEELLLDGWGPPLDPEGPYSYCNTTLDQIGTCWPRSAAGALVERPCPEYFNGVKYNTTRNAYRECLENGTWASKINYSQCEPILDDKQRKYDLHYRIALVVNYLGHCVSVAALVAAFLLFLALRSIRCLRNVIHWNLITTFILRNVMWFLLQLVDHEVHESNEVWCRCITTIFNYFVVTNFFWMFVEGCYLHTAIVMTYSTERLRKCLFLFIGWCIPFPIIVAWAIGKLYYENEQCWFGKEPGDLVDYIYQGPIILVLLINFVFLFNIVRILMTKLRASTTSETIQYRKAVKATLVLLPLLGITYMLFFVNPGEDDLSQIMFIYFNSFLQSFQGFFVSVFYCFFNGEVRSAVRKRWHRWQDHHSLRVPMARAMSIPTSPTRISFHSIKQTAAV
Procedure, shortened: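 Frozen stocks of hCRHR2-expressing CHO-K1 cells, thawed just before testing, received peptide agonists in suspension; cAMP quantified by competitive HTRF immunoassay, with curves fitted by nonlinear regression (variable slope) for EC50.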

hCRHR1 = target: T2, hCRHR1 (Homo sapiens, UniProt P34998); experiment: HTRF cAMP assay, determination of hCRHR1 potency (peptide libraries 5 conc., purified peptides 11 conc.); type: cell-based
T2 sequence (P34998 24-415): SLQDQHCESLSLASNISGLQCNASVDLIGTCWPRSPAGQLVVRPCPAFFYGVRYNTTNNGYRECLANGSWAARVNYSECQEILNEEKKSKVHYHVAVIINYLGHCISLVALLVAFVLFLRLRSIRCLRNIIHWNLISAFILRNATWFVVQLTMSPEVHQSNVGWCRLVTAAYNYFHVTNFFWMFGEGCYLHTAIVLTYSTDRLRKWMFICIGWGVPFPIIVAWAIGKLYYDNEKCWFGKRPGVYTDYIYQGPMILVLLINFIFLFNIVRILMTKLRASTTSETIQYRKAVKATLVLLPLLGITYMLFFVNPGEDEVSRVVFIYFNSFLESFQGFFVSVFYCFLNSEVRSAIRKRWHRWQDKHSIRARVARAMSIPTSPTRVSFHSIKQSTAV
Procedure, shortened: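 Cellular cAMP was read by time-resolved FRET between d2-labelled cAMP and cryptate anti-cAMP antibody. The cells were freshly thawed suspension CHO-K1 cells stably expressing human CRHR1.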

PK in rats = type: in vivo; parameters: T½ / MRT: unit not given here; settings: for half-life: read-out: T½ (converted)
Procedure, shortened: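 Lean male Sprague Dawley rats (n = 3 per group) got a two-peptide combination at 50 nmol/kg IV and SC. Plasma was sampled from 0.17 to 96 h post dose and analysed by LC-MSMS. PK parameters came from non-compartmental analysis.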

[1] = Effect on acute food intake in mice; type: in vivo; settings: single subcutaneous dose
Method: Male NMRI mice were obtained from JanVier (JanVier Labs, France) at 5 weeks of age. The animals were group-housed 4 mice pr. cage under a 12/12 h dark-light cycle, light off at 1 PM. Room temperature was controlled to 22°C ± 1°C, with 60 % ± 20% humidity. Animals had ad libitum access to regular rodent chow (Altromin 1324, Brogaarden, Denmark) and tap water.
Animals were transferred 5-7 days before the start of the study to a real-time food intake monitoring system, HM-2 system (MBRose, Denmark) to allow acclimatization to experimental conditions. As the animals were uniquely identified with microchips, each individual animal was identified by its microchip upon entry and exit from the food channel. Randomization of the mice for each study group (n=7-8) was based on body weight measured the day before the start of the study. A vehicle-treated group was included in each experiment. Six hours before the start of the dark phase, animals were fasted. One hour before the dark phase, animals were dosed once subcutaneously with test peptide. Food intake was reported hourly for a period of 72 hours. The percentage of food intake reduction was normalized to average food intake from the vehicle group. Statistical significance was evaluated using One-way analysis of variance with Dunnett's multiple comparison test. P < 0.05 was considered statistically significant.
Selected compounds were tested according to the general procedure on acute food intake in mice to determine the effect of a single subcutaneous dose on food intake in mice over 3 days.

[2] = purified peptides, CHO-K1 cells stably expressing hCRHR2, cAMP HTRF, read-out: hCRHR2 EC50
[3] = purified peptides, CHO-K1 cells stably expressing hCRHR1, cAMP HTRF, read-out: hCRHR1 EC50
[4] = male, Sprague Dawley (RJHan:SD), in vivo, iv, Rat, 50 nmol/kg i.v.
[5] = male, Sprague Dawley (RJHan:SD), in vivo, sc, Rat, 50 nmol/kg s.c.

Structure (SMILES) | MRT (PK in rats; Rat) | T½ (PK in rats; Rat) | % FI compared to vehicle, 24 h post-dosing ([1]; 30 nmol/kg) | % FI compared to vehicle, 24 h post-dosing ([1]; 100 nmol/kg) | % FI compared to vehicle, 24 h post-dosing ([1]; 300 nmol/kg) | Solubility pH 7.5, target conc. =10 mg/mL (measured mg/mL) (pH 7.5) | Selectivity ratio (hCRHR1/ hCRHR2) (hCRHR2; hCRHR1-EC50/hCRHR2-EC50) | EC50 (hCRHR2; [2]) | EC50 (hCRHR1; [3]) | other results
CCCC[C@H](NC(=O)[C@@H](NC(=O)[C@H](CCC(=O)O)NC(=O)[C@H](C)NC(=O)[C@H](CC(N)=O)NC(=O)C(C)(C)NC(=O)[C@H](CCCCNC(=O)COCCOCCNC(=O)COCCOCCNC(=O)CC[C@H](NC(=O)CC[C@H](NC(=O)CCCCCCCCCCCCCCCCCCC(=O)O)C(=O)O)C(=O)O)NC(=O)[C@H](C)NC(=O)[C@H](CCC(N)=O)NC(=O)[C@H](CCC(=O)O)NC(=O)[C@H](CCCNC(=N)N)NC(=O)[C@H](C)NC(=O)[C@H](C)NC(=O)[C@H](CCCNC(=N)N)NC(=O)[C@H](C)NC(=O)[C@H](CCCNC(=N)N)NC(=O)[C@H](C)NC(=O)[C@H](CCC(N)=O)NC(=O)[C@H](CO)NC(=O)[C@H](CC(C)C)NC(=O)[C@H](CC(C)C)NC(=O)[C@@H](NC(=O)[C@H](CCC(N)=O)NC(=O)[C@H](CC(C)C)NC(=O)[C@H](CC(C)C)NC(=O)CNC(=O)[C@@H](NC(=O)[C@@H]1CCCN1C(=O)[C@@H](NC(=O)[C@H](CC(=O)O)NC(=O)[C@H](CC(C)C)NC(=O)[C@H](CO)NC(=O)[C@H](CC(C)C)NC(=O)[C@@H](NC(=O)[C@@H](NC)[C@@H](C)CC)C(C)C)C(C)C)[C@@H](C)CC)[C@@H](C)CC)[C@@H](C)CC)C(=O)N[C@@H](C)C(=O)N[C@@H](CCC(=O)O)C(=O)N[C@H](C(N)=O)C(C)C [compound 132] (H-[NMeI]VLSLDVPIGLLQILLSQARARAAREQAK([AEEA-AEEA-γGlu-γGlu-C20 diacid])[Aib]NAEI[Nle]AEV-NH2) | 6.2 | 4.8 | 46.64*** % | 18.5*** % | 20.04*** % | 11 mg/mL |  |  |  | EC50 (hCRHR2; Table 4, library peptides having X^38 = Nle, read-out: hCRHR2 pEC50 (converted)): 0.02 nM; Selectivity ratio (hCRHR1/ hCRHR2) (hCRHR2; Table 5): >6494; EC50 (hCRHR2; Table 5, purified peptides, read-out: hCRHR2 EC50): 0.77 nM; EC50 (hCRHR1; Table 4, library peptides having X^38 = Nle, read-out: hCRHR1 pEC50 (converted)): 794 nM; EC50 (hCRHR1; Table 5, purified peptides, read-out: hCRHR1 EC50): > 5000 nM
CC[C@H](C)[C@H](N)C(=O)N[C@H](C(=O)N[C@@H](CC(C)C)C(=O)N[C@@H](CO)C(=O)N[C@@H](CC(C)C)C(=O)N[C@@H](CC(=O)O)C(=O)N[C@H](C(=O)N1CCC[C@H]1C(=O)N[C@H](C(=O)NCC(=O)N[C@@H](CC(C)C)C(=O)N[C@@H](CC(C)C)C(=O)N[C@@H](CCC(N)=O)C(=O)N[C@H](C(=O)N[C@@H](CC(C)C)C(=O)N[C@@H](CC(C)C)C(=O)N[C@@H](CCC(=O)O)C(=O)N[C@@H](CCC(N)=O)C(=O)N[C@@H](C)C(=O)N[C@@H](CCCNC(=N)N)C(=O)N[C@@H](C)C(=O)N[C@@H](CCCNC(=N)N)C(=O)N[C@@H](C)C(=O)N[C@@H](C)C(=O)N[C@@H](CCCNC(=N)N)C(=O)N[C@@H](CCC(=O)O)C(=O)N[C@@H](CCC(N)=O)C(=O)N[C@@H](C)C(=O)N[C@H](C(=O)N[C@@H](CCCCNC(=O)COCCOCCNC(=O)COCCOCCNC(=O)CC[C@H](NC(=O)CC[C@H](NC(=O)CCCCCCCCCCCCCCCCCCC(=O)O)C(=O)O)C(=O)O)C(=O)N[C@@H](CC(N)=O)C(=O)N[C@@H](C)C(=O)N[C@@H](CCC(=O)O)C(=O)N[C@H](C(=O)N[C@@H](CC(C)C)C(=O)N[C@@H](C)C(=O)N[C@@H](CCC(=O)O)C(=O)N[C@H](C(N)=O)C(C)C)[C@@H](C)CC)[C@@H](C)O)[C@@H](C)CC)[C@@H](C)CC)C(C)C)C(C)C [SEQ ID NO: 4] (H-IVLSLDVPIGLLQILLEQARARAAREQATK([AEEA-AEEA-γGlu-γGlu-C20 diacid])NAEILAEV-NH2) | 6.4 | 5.3 | 63.41*** % | 19.33*** % | 18.14*** % | 9.1 mg/mL | >3846 | 1.3 nM | > 5000 nM | 
CC[C@H](C)[C@H](NC)C(=O)N[C@H](C(=O)N[C@@H](CC(C)C)C(=O)N[C@@H](CO)C(=O)N[C@@H](CC(C)C)C(=O)N[C@@H](CC(=O)O)C(=O)N[C@H](C(=O)N1CCC[C@H]1C(=O)N[C@H](C(=O)NCC(=O)N[C@@H](CC(C)C)C(=O)N[C@@H](CC(C)C)C(=O)N[C@@H](CCC(N)=O)C(=O)N[C@H](C(=O)N[C@@H](CC(C)C)C(=O)N[C@@H](CC(C)C)C(=O)N[C@@H](CCC(=O)O)C(=O)N[C@@H](CCC(N)=O)C(=O)N[C@@H](C)C(=O)N[C@@H](CCCNC(=N)N)C(=O)N[C@@H](C)C(=O)N[C@@H](CCCNC(=N)N)C(=O)N[C@@H](C)C(=O)N[C@@H](C)C(=O)N[C@@H](CCCNC(=N)N)C(=O)N[C@@H](CCC(=O)O)C(=O)N[C@@H](CCC(N)=O)C(=O)N[C@@H](C)C(=O)N[C@@H](CCCCNC(=O)COCCOCCNC(=O)COCCOCCNC(=O)CC[C@H](NC(=O)CC[C@H](NC(=O)CCCCCCCCCCCCCCCCCCC(=O)O)C(=O)O)C(=O)O)C(=O)N[C@H](C(=O)N[C@@H](CC(N)=O)C(=O)NC(C)(C)C(=O)N[C@@H](CCC(=O)O)C(=O)N[C@H](C(=O)N[C@@H](CC(C)C)C(=O)N[C@@H](C)C(=O)N[C@@H](CCC(=O)O)C(=O)N[C@H](C(N)=O)C(C)C)[C@@H](C)CC)[C@@H](C)O)[C@@H](C)CC)[C@@H](C)CC)C(C)C)C(C)C [SEQ ID NO: 16] (H-[NMeI]VLSLDVPIGLLQILLEQARARAAREQAK([AEEA-AEEA-γGlu-γGlu-C20 diacid])TN[Aib]EILAEV-NH2) | 9.4 | 7.8 | 44.62*** % | 18.21*** % | 12.36*** % | 10 mg/mL | >1852 | 2.7 nM | > 5000 nM | EC50 (hCRHR1; stable cell system, Table 10, read-out: Stable EC50 (nM) hCRHR 1): > 5000 nM; clearance (PK in rats; [4]): 0.117 mL/min/kg; half-life (PK in rats; [4]): 7.8 h; Cmax (PK in rats; [5]): 87 nM; Tmax (PK in rats; [5]): 24 h; half-life (PK in rats; [5]): 9.8 h; bioavailability (PK in rats; male, Sprague Dawley, rat, in vivo, sc): 31%; Solubility pH 6.5 (mg/ml) (pH 6.5): 20.6 mg/ml; Solubility pH 7.0 (mg/mL) (pH 7): 19.8 mg/mL; Solubility pH 7.5 (mg/mL) (pH 7.5): 17.9 mg/mL; Solubility pH 7.5 + phenol (mg/mL) (pH 7.5): 18.0 mg/mL
